Data as given in US8450479B2, “3-substituted-4-oxo-3,4-dihydro-imidazo[5,1-d][1,2,3,5-tetrazine-8-carboxylic acid amides and their use” (Pharminox Limited, priority 2007, dated 2013).
Values joined by “and” are separate entries in the source; they are usually repeats but may differ in a detail not shown here. Equal values may be shown once. Where a name gives a salt, the structure may show the parent alone. Read-outs that look alike come from different tables or passages of the source.

Assays:
Assay in all cases: MTT assay for 7-day toxicity assay
Format in all cases: cell-based
[1] = test system: Glioma SNB19V (MGMT−); conditions: for GI50: Glioma SNB19V (MGMT−)
Method: (§1) The cell culture techniques were carried out in a Class II microbiological safety cabinet which was swabbed with 70% IMS in distilled water before each use. […] MRC-5 cells were cultured in EMEM. Cells were grown in a humidified incubator containing 5% CO2 at 37° C. Cells were sub-cultured when growth exceeded approximately 80% confluence, normally twice weekly. The medium was aspirated from the flask and approximately 0.8 mL trypsin-EDTA 1× solution added. The cells were re-incubated at 37° C. until they visibly detached from the flask. The cell suspension was then re-suspended in 5 mL medium and 0.5-1 mL of the cell suspension was transferred to a new flask (25 cm^2) with 7 mL culture medium. The cells were further incubated at 37° C. incubator. Cells were disposed after passage nearly 30 times in order to minimize phenotypic drift. New batches of cells were taken from liquid nitrogen storage by thawing rapidly (37° C. water bath) and re-suspension in a 25 cm^2 flask with 10 mL of culture medium. Two passages were allowed to resume normal growth. For long-term maintenance, viable cells at 60-80% confluence were detached by minimum amount of trypsin/EDTA and re-suspended in sterile filtered freezing medium (95% FBS, 5% DMSO), transferred to sterile cryogenic vials, and frozen overnight at −20° C. followed by −80° C. for 1-2 days and stored in liquid nitrogen for long term storage.
(§2) Most test compounds, including temozolomide, were prepared as stock solution (100 mM) in DMSO and stored at −20° C. for not more than 6 months.
(§3) Glioma cell lines, SNB19 and U373, both MGMT transfected (i.e., SNB19M and U373M) and vector controls (i.e., SNB19V and U373V); colorectal carcinoma cell lines, HCT116, HT29, and DLD1; melanoma cell line, SKMEL-28; breast cell line, MCF-7; and normal human fetal lung fibroblast cell line, MRC-5; were harvested at 60-80% confluence—during the logarithmic phase of growth.
(§4) Following harvesting, cells in suspension were gently syringed through a 23 gauge needle to obtain a near-single cell suspension. The desired cell seeding densities were used and added into 96-well plates in 180 μL culture medium if only one test compound was to be added, or 160 μL if two test compounds were to be added in combination, which were allowed to attach at 37° C. (5% CO2) overnight. For the 7 day assay, the cell seeding density for different cell lines was as follows: SNB19V, SNB19M: 650 cells/well; U373V, U373M: 650 cells/well; SNB19VR, U373VR: 650 cells/well; HCT116, DLD-1, SKMEL-28, MRC-5, MCF-7: 400 cells/well.
(§5) The two peripheral lanes were used as blank wells (cell free) and filled with 200 μL of medium in order to minimise medium evaporation from the plate. A separate time zero (T0) plate was set up alongside other plates. Serial dilutions in tissue culture medium of a 100 mM stock of test compound in DMSO were prepared immediately before each assay to ten times the final concentrations required, and then 20 μL was added to each well (200 μL total media per well) to achieve final concentrations of 0.5 μM, 1 μM, 5 μM, 10 μM, 50 μM, 100 μM, 500 μM, and 1000 μM. A minimum of four wells received the same test compound concentration. To control wells, including those in the T0 plate, 20 μL of medium was added. […] A separate plate treated in the same way, but free of test compound, was used as a measure of cell viability at the time of drug addition (day 0).
(§6) After incubation at 37° C., 5% CO2 for 7 days (or immediately for the day 0 plate), cell viability was quantified using the MTT assay. 50 μL of sterile filtered MIT (3-(4,5-dimethylthiazol-2-yl)-2,5-diphenyltetrazolium bromide) (2 mg/mL in phosphate buffered saline) were added to each well (final concentration 0.4 mg/mL) and the plates were re-incubated for 4 hours to allow metabolic conversion of MTT by dehydrogenases in viable cells to insoluble formazan crystals.
(§7) The intensity of absorbance is directly proportional to cell viability.

[2] = test system: Glioma U373V (MGMT low); conditions: Glioma U373V (MGMT low)
Method: as §1, §2, §3, §4, §5, §6, §7

[3] = test system: Glioma U373M (MGMT+); conditions: Glioma U373M (MGMT+), 7-day MTT, single determinations, read-out: GI50
Method: as §1, §2, §3, §4, §5, §6, §7

[4] = test system: Glioma SNB19M (MGMT+); conditions: for GI50: Glioma SNB19M (MGMT+)
Method: as §1, §2, §3, §4, §5, §6, §7

[5] = 168 h, 7-day MTT, single determinations, read-out: GI50
[6] = 7-day MTT, single determinations, read-out: GI50

With CC(c1ccc(Br)cc1)n1nnc2c(C(N)=O)ncn2c1=O (racemic) [BB-005, (+/−) 3-(-1-(4-Bromophenyl)ethyl)-8-carbamoylimidazotetrazin-4-one] the GI50 [1, 5] was 42 µM and the GI50 [1, 6] was 80.2 µM and 81 µM and 70.2 µM.
COc1ccc(Cn2nnc3c(C(N)=O)ncn3c2=O)cc1OC [AA-005, 3-(3,4-dimethoxybenzyl)-4-oxo-3,4-dihydroimidazo[5,1-d][1,2,3,5]tetrazine-8-carboxamide] gave a GI50 [2, 5] of 197 µM, a GI50 [2, 6] of 259 µM and a GI50 ([3]; 168 h) of 301 µM. For the same compound, the GI50 [3] was 224 µM, the GI50 [1, 5] was 218 µM and the GI50 [1, 6] was 114 µM. For the same compound, the GI50 [4, 5] was 282 µM and the GI50 [4, 6] was 232 µM.
COc1ccc([C@@H](C)n2nnc3c(C(N)=O)ncn3c2=O)cc1 [BB-003, (R)-3-(−1-(4-Methoxyphenyl)ethyl)-8-carbamoylimidazotetrazin-4-one] showed a GI50 [2, 5] of 71 µM, a GI50 [2, 6] of 138 µM and a GI50 [1, 5] of 55.8 µM. The GI50 [1, 6] was 93.7 µM, the GI50 [4, 5] was 72.3 µM and the GI50 [4, 6] was 97.1 µM.
NC(=O)c1ncn2c(=O)n(Cc3ccsc3)nnc12 [CC-001, 4-oxo-3-(thiophen-3-ylmethyl)-3,4-dihydroimidazo[5,1-d][1,2,3,5]tetrazine-8-carboxamide] gave a GI50 [2, 5] of 206 µM, a GI50 [2, 6] of 160 µM and a GI50 ([3]; 168 h) of 198 µM. It also gave a GI50 [3] of 232 µM, a GI50 [1, 5] of 79.6 µM and a GI50 [1, 6] of 117 µM. It also gave a GI50 [4, 5] of 208 µM and a GI50 [4, 6] of 135 µM.
Work on NC(=O)c1ncn2c(=O)n(Cc3cccs3)nnc12 [CC-002, 4-oxo-3-(thiophen-2-ylmethyl)-3,4-dihydroimidazo[5,1-d][1,2,3,5]tetrazine-8-carboxamide] yielded a GI50 [2, 5] of 149 µM, a GI50 [2, 6] of 81.4 µM and a GI50 ([3]; 168 h) of 96.8 µM. For the same compound, the GI50 [3] was 52.2 µM, the GI50 [1, 5] was 76.7 µM and the GI50 [1, 6] was 52 µM. It also gave a GI50 [4, 5] of 63.6 µM and a GI50 [4, 6] of 54.7 µM.
Cc1noc(Cn2nnc3c(C(N)=O)ncn3c2=O)n1 [CC-003, 3-(3-Methyl-[1,2,4]oxadiazol-5-ylmethyl)-4-oxo-3,4-dihydro-imidazo[5,1-d][1,2,3,5]tetrazine-8-carboxylic acid amide] gave a GI50 ([3]; 168 h) of 196 µM, a GI50 [3] of 391 µM and a GI50 [1, 5] of 208 µM. The GI50 [1, 6] was 176 µM, the GI50 [4, 5] was 198 µM and the GI50 [4, 6] was 208 µM.
Cc1cc(Cn2nnc3c(C(N)=O)ncn3c2=O)on1 [CC-004, 3-(3-Methyl-isoxazol-5-ylmethyl)-4-oxo-3,4-dihydro-imidazo[5,1-d][1,2,3,5]tetrazine-8-carboxylic acid amide] showed a GI50 ([3]; 168 h) of 29.3 µM, a GI50 [1, 5] of 38 µM and a GI50 [1, 6] of 54.9 µM.
In the case of NC(=O)c1ncn2c(=O)n(Cc3c[nH]nn3)nnc12 [CC-005, 4-Oxo-3-(1H-[1,2,3]triazol-4-ylmethyl)-3,4-dihydro-imidazo[5,1-d][1,2,3,5]tetrazine-8-carboxylic acid amide], the GI50 [2, 5] is reported as 261 µM, the GI50 [2, 6] is reported as 400 µM and the GI50 ([3]; 168 h) is reported as 334 µM. For the same compound, the GI50 [3] was 330 µM, the GI50 [1, 5] was 357 µM and the GI50 [1, 6] was 239 µM. The GI50 [4, 5] was 257 µM and the GI50 [4, 6] was 409 µM.
Compound CC#CCn1nnc2c(C(N)=O)ncn2c1=O [EE-002, 3-But-2-ynyl-4-oxo-3,4-dihydro-imidazo[5,1-d][1,2,3,5]tetrazine-8-carboxylic acid amide] has a GI50 [2, 5] of 42.1 µM, a GI50 [2, 6] of 31.1 µM and a GI50 ([3]; 168 h) of 41.1 µM. It also gave a GI50 [3] of 25.1 µM, a GI50 [1, 5] of 33.5 µM and a GI50 [1, 6] of 45.8 µM. The GI50 [4, 5] was 38.1 µM and the GI50 [4, 6] was 37.1 µM.
With C[Si](C)(C)C#CCn1nnc2c(C(N)=O)ncn2c1=O [EE-003, 4-Oxo-3-(3-trimethylsilanyl-prop-2-ynyl)-3,4-dihydro-imidazo[5,1-d][1,2,3,5]tetrazine-8-carboxylic acid amide] the GI50 [2, 5] was 26.8 µM, the GI50 [2, 6] was 33.6 µM and the GI50 ([3]; 168 h) was 31.5 µM. It also gave a GI50 [3] of 30 µM, a GI50 [1, 5] of 41.7 µM and a GI50 [1, 6] of 36.6 µM. It also gave a GI50 [4, 5] of 42.9 µM and a GI50 [4, 6] of 35.2 µM.
In the case of NC(=O)c1ncn2c(=O)n(C3CCCC3)nnc12 [FF-001, 3-Cyclopentyl-8-carbamoylimidazotetrazin-4-one], the GI50 [2, 5] is reported as 169 µM, the GI50 [2, 6] is reported as 163 µM and the GI50 ([3]; 168 h) is reported as 228 µM. For the same compound, the GI50 [3] was 204 µM, the GI50 [1, 5] was 318 µM and the GI50 [1, 6] was 266 µM. For the same compound, the GI50 [4, 5] was 292 µM and the GI50 [4, 6] was 238 µM.
In the case of NC(=O)c1ncn2c(=O)n(C3CC3)nnc12 [FF-002, 3-Cyclopropyl-8-carbamoylimidazotetrazin-4-one], the GI50 [2, 5] is reported as 293 µM, the GI50 [2, 6] is reported as 386 µM and 241 µM and the GI50 ([3]; 168 h) is reported as 369 µM. The GI50 [3] was 346 µM and 367 µM, the GI50 [1, 5] was 516 µM and the GI50 [1, 6] was 376 µM and 392 µM. For the same compound, the GI50 [4, 5] was 593 µM and the GI50 [4, 6] was 637 µM and 418 µM.
NC(=O)c1ncn2c(=O)n(CC3CCCCC3)nnc12 [GG-001, 3-Cyclohexylmethyl-8-carbamoylimidazotetrazin-4-one] showed a GI50 [2, 5] of 717 µM, a GI50 [2, 6] greater than 1000 µM and a GI50 [4, 5] of 831 µM. For the same compound, the GI50 [4, 6] was 445 µM.
For NC(=O)c1ncn2c(=O)n(CC3CC3)nnc12 [GG-003, 3-Cyclopropylmethyl-8-carbamoylimidazotetrazin-4-one], the GI50 [2, 5] was 386 µM, the GI50 [4, 5] was 152 µM and the GI50 [4, 6] was 293 µM.
For NC(=O)c1ncn2c(=O)n(C3CCNCC3)nnc12 [HH-001, 3-Piperidin-4-yl-8-carbamoylimidazotetrazin-4-one hydrobromide], the GI50 ([3]; 168 h) was 72 µM, the GI50 ([3]; hydrobromide) was 115 µM and the GI50 [1, 5] was 167 µM. It also gave a GI50 ([1]; 7-day MTT, single determinations, hydrobromide, read-out: GI50) of 190 µM.
NC(=O)CCn1nnc2c(C(N)=O)ncn2c1=O [JJ-004, 3-(8-Carbamoyl-oxoimidazo[5,1-d][1,2,3,5]tetrazin-3(4H)-yl)propanamide] showed a GI50 [1, 5] of 348 µM, a GI50 [1, 6] of 294 µM and a GI50 [4, 5] of 417 µM. The GI50 [4, 6] was 281 µM.
In the case of CC(C)(C)C(=O)OCn1nnc2c(C(N)=O)ncn2c1=O [LL-004, 2,2-Dimethyl-propionic acid 8-carbamoyl-4-oxo-imidazo[5,1-d][1,2,3,5]tetrazin-3-ylmethyl ester], the GI50 [1, 5] is reported as 47.2 µM and the GI50 [1, 6] is reported as 35.9 µM and 51.9 µM.
For CC(C)(C)OC(=O)Cn1nnc2c(C(N)=O)ncn2c1=O [LL-006, (8-Carbamoyl-4-oxo-imidazo[5,1-d][1,2,3,5]tetrazin-3-yl)-acetic acid tert-butyl ester], the GI50 ([4]; 168 h, 7-day MTT, single determinations) was 64 µM and the GI50 ([4]; 7-day MTT, single determinations) was 60.5 µM and 87.2 µM.
In the case of CCOP(=O)(Cn1nnc2c(C(N)=O)ncn2c1=O)OCC [VV-001, (8-Carbamoyl-4-oxo-imidazo[5,1-d][1,2,3,5]tetrazin-3-ylmethyl)-phosphonic acid diethyl ester], the GI50 [2] is reported as 306 µM and 174 µM, the GI50 [1] is reported as 73.6 µM and 63.4 µM and the “activity compared with TMZ, in words” value ([1]; SNB19V glioma cell line) is reported as “more active than TMZ”. The GI50 [4] was 102 µM and 85.6 µM and the “activity compared with TMZ, in words” value ([4]; SNB19M glioma cell line) was “more active than TMZ”.
